Experimental data as given in PubChem BioAssay AID2060611 (Molecular Pharmacology Branch, DTP, NCI, 2025).
Each block holds one molecule with its values, some of them ahead of it.

System: 628569-122-R-J1-PDC complex spheroid viability
Assay: Anticancer human tumor 628569-122-R-J1-PDC patient-derived head and neck squamous carcinoma cell line growth inhibition [CLK]
Settings: for IC50: curve of first compound; for viability, T/C: stronger effect = lower value
Text: A high-throughput screen of multi-cell type tumor spheroids was designed to identify active combinations of […] and targeted small molecules. Complex spheroids include a stromal component modeled by human endothelial cells (HUVEC) and fibroblasts modeled by human mesenchymal stem cells (MSCs). The concentration ranges selected for each drug and investigational agent were based upon clinically achievable concentrations if the clinical Cmax of the agent was known.
Compounds. The drugs and investigational agents: cirtuvivint (SM08502; NSC835563), CC-671 (NSC850746), vemurafenib (NSC761431), tapotoclax (NSC804041), sotorasib (NSC818433), adagrasib (NSC831453), MRTX-1133 (NSC836407), BAY2416964 (NSC825713), copanlisib (NSC816437), inavolisib (NSC800729), abemaciclib (NSC768073), osimertinib (NSC779217), entinostat (NSC756642), eltanexor (KPT-8602, NSC794443), venetoclax (NSC766270), ceralasertib (NSC777638), bortezomib (NSC756655), olaparib (NSC753686), talazoparib (NSC767125), alisertib (NSC759677), peposertib (NSC802822), gemcitabine (NSC613327), 5-fluorouracil (NSC19893), SN-38 (NSC673596), oxaliplatin (NSC266046), paclitaxel (NSC125973), and doxorubicin (NSC123127), were obtained from the National Cancer Institute (NCI) Developmental Therapeutics Program Chemical Repository. The FDA-approved anticancer drug set is available from the Developmental Therapeutics Program at https://dtp.cancer.gov/organization/dscb/obtaining/available plates.htm. […] The stock solutions were prepared in dimethyl sulfoxide (DMSO, Sigma-Aldrich, St. Louis, MO, cat. D2650), except for the platinum complexes which were prepared in saline (Quality Biological, Gaithersburg, MD, cat. 114-055-101), at 800-fold the tested concentration and stored at -70 degrees C prior to their use. All drugs and investigational agents were tested over a range starting from a high concentration at or near the clinical Cmax and decreasing in half-log increments. If the clinical Cmax for an agent had not been determined, the highest concentration tested was 10 microM.
Cell Culture. All cells were maintained in an incubator at 37 degrees C and 5% CO2 with 95% humidity. The PDC lines were cultured according to standard operating procedures established by the NCI PDMR. Briefly, all PDCs were thawed and cultured in Matrigel-coated flasks prepared with a working solution of 1X Ham's F-12 nutrient mix, without supplementation (Invitrogen, Waltham, MA, cat. 11765054), 100 U/mL penicillin-streptomycin (Invitrogen, cat. 15140122), and 2.5% Matrigel (Corning Inc., Corning, NY, cat. 354248) for the first three passages. The 947758-054-R-J2-PDC line was cultured in 6B/Colon 1A media, which includes advanced DMEM/F-12 (Thermo Fisher Scientific, cat. 12634028), 10 mM HEPES (Thermo Fisher Scientific, cat. 15630080), 1X GlutaMAX supplement (Thermo Fisher Scientific, cat. 35050061), 0.1 mg/mL primocin (InvivoGen, cat. ant-pm-2), 10% defined fetal bovine serum, heat inactivated (HyClone Laboratories Inc., cat. SH30070.03HI), 1.25 mM N-Acetyl-L-cysteine (Sigma-Aldrich, cat. A9165), 10 mM nicotinamide (Sigma-Aldrich, cat. N0636), 1X B-27 supplement (Thermo Fisher Scientific, cat. 17504044), 1X N-2 supplement (Thermo Fisher Scientific, cat. 17502048), and 10 microM Y-27632 dihydrochloride (Tocris Bioscience, cat. 1254). The 876862-298-R-J1-PDC was cultured in 6E media, which includes all 6B/Colon 1A media components plus 50% L-WRN conditioned media (ATCC, cat. CRL-3276), 50 ng/mL recombinant human EGF recombinant protein (hEGF; Thermo Fisher Scientific, cat. PHG0311), 10 ng/mL recombinant human fibroblast growth factor 10 (hGFG-10; PeproTech, cat. 100-26), 1 ng/mL recombinant human fibroblast growth factor 2 (hFGF-2; PeproTech, cat. 100-18B), and 1 µM prostaglandin E2 (PGE2; Tocris, cat. 2296). The 227483-062-R1-J1-PDC line was cultured in Panc media, containing all 6E components except hFGF-2, with the addition of 500 nM SB-431542 (Selleckchem, cat. S1067) and 10 nM gastrin (Tocris, cat. 3006). […]

[1] = second compound 0.0316 µM, first compound 0.0316 µM
[2] = second compound 0.0316 µM, first compound 0.1 µM
[3] = second compound 0.0316 µM, first compound 0.316 µM
[4] = second compound 0.0316 µM, first compound 1 µM
[5] = second compound 0.0316 µM, first compound 3.16 µM
[6] = second compound 0.0316 µM, first compound 10 µM
[7] = second compound 0.1 µM, first compound 0.0316 µM
[8] = second compound 0.1 µM, first compound 0.1 µM
[9] = second compound 0.1 µM, first compound 0.316 µM
[10] = second compound 0.1 µM, first compound 1 µM
[11] = second compound 0.1 µM, first compound 3.16 µM
[12] = second compound 0.1 µM, first compound 10 µM
[13] = second compound 0.316 µM, first compound 0.0316 µM
[14] = second compound 0.316 µM, first compound 0.1 µM
[15] = second compound 0.316 µM, first compound 0.316 µM
[16] = second compound 0.316 µM, first compound 1 µM
[17] = second compound 0.316 µM, first compound 3.16 µM
[18] = second compound 0.316 µM, first compound 10 µM
[19] = second compound 1 µM, first compound 0.0316 µM
[20] = second compound 1 µM, first compound 0.1 µM
[21] = second compound 1 µM, first compound 0.316 µM
[22] = second compound 1 µM, first compound 1 µM
[23] = second compound 1 µM, first compound 3.16 µM
[24] = second compound 1 µM, first compound 10 µM
[25] = second compound 3.16 µM, first compound 0.0316 µM
[26] = second compound 3.16 µM, first compound 0.1 µM
[27] = second compound 3.16 µM, first compound 0.316 µM
[28] = second compound 3.16 µM, first compound 1 µM
[29] = second compound 3.16 µM, first compound 3.16 µM
[30] = second compound 3.16 µM, first compound 10 µM
[31] = second compound 10 µM, first compound 0.0316 µM
[32] = second compound 10 µM, first compound 0.1 µM
[33] = second compound 10 µM, first compound 0.316 µM
[34] = second compound 10 µM, first compound 1 µM
[35] = second compound 10 µM, first compound 3.16 µM
[36] = second compound 10 µM, first compound 10 µM
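Note: spheroids exposed to agents for seven days before readout.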
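Throughout, for viability, T/C: 100% = DMSO vehicle control viability.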

- IC50 (second compound 0.0316 µM): > 10000 nM
- IC50 (second compound 0.1 µM): > 10000 nM
- IC50 (second compound 0.316 µM): > 10000 nM
- IC50 (second compound 1 µM): < 31.6 nM
- IC50 (second compound 3.16 µM): < 31.6 nM
- IC50 (second compound 10 µM): < 31.6 nM
Compound: C=CC(=O)N1CCN(c2nc(=O)n(-c3c(C)ccnc3C(C)C)c3nc(-c4c(O)cccc4F)c(F)cc23)C(C)C1 (centres undefined) + CNC(=O)c1ccc(Nc2nc(OC3CCCC3)c3c(-c4ccc5nc(C)oc5c4)c[nH]c3n2)c(OC)c1
- viability, T/C [1]: 80%
- viability, T/C [2]: 105%
- viability, T/C [3]: 84.1%
- viability, T/C [4]: 105%
- viability, T/C [5]: 127%
- viability, T/C [6]: 125%
- viability, T/C [7]: 61.9%
- viability, T/C [8]: 64.2%
- viability, T/C [9]: 60%
- viability, T/C [10]: 59.7%
- viability, T/C [11]: 75.8%
- viability, T/C [12]: 81.1%
- viability, T/C [13]: 52.6%
- viability, T/C [14]: 59.9%
- viability, T/C [15]: 60.2%
- viability, T/C [16]: 62.9%
- viability, T/C [17]: 63.7%
- viability, T/C [18]: 67%
- viability, T/C [19]: 49.9%
- viability, T/C [20]: 47%
- viability, T/C [21]: 47.1%
- viability, T/C [22]: 58.4%
- viability, T/C [23]: 59.6%
- viability, T/C [24]: 59.8%
- viability, T/C [25]: 39.7%
- viability, T/C [26]: 45.9%
- viability, T/C [27]: 51.5%
- viability, T/C [28]: 50.4%
- viability, T/C [29]: 54.7%
- viability, T/C [30]: 53%
- viability, T/C [31]: 48.6%
- viability, T/C [32]: 37.7%
- viability, T/C [33]: 47.1%
- viability, T/C [34]: 44.9%
- viability, T/C [35]: 44.7%
- viability, T/C [36]: 44%

Compound: CC1COCCN1c1cc(C2(S(C)(=N)=O)CC2)nc(-c2ccnc3[nH]ccc23)n1 (centres undefined) + CN1CCN(c2cc(C(=O)Nc3cc4cc(-c5cnn(C)c5)ccc4cn3)ccn2)CC1
- IC50 (second compound 0.0316 µM): 2620 nM
- IC50 (second compound 0.1 µM): 1420 nM
- IC50 (second compound 0.316 µM): < 31.6 nM
- IC50 (second compound 1 µM): < 31.6 nM
- IC50 (second compound 3.16 µM): < 31.6 nM
- IC50 (second compound 10 µM): < 31.6 nM
- viability, T/C [1]: 101%
- viability, T/C [2]: 95.9%
- viability, T/C [3]: 79.1%
- viability, T/C [4]: 60.8%
- viability, T/C [5]: 45.9%
- viability, T/C [6]: 46.1%
- viability, T/C [7]: 68.2%
- viability, T/C [8]: 75.6%
- viability, T/C [9]: 59%
- viability, T/C [10]: 53.6%
- viability, T/C [11]: 45.4%
- viability, T/C [12]: 41.2%
- viability, T/C [13]: 34.3%
- viability, T/C [14]: 41.9%
- viability, T/C [15]: 36%
- viability, T/C [16]: 38.4%
- viability, T/C [17]: 27.2%
- viability, T/C [18]: 24.7%
- viability, T/C [19]: 9.71%
- viability, T/C [20]: 9.35%
- viability, T/C [21]: 7.68%
- viability, T/C [22]: 7.29%
- viability, T/C [23]: 7.44%
- viability, T/C [24]: 10.3%
- viability, T/C [25]: 8.58%
- viability, T/C [26]: 5.23%
- viability, T/C [27]: 6.65%
- viability, T/C [28]: 9.55%
- viability, T/C [29]: 9.82%
- viability, T/C [30]: 9.3%
- viability, T/C [31]: 4.43%
- viability, T/C [32]: 4.71%
- viability, T/C [33]: 5.12%
- viability, T/C [34]: 4.78%
- viability, T/C [35]: 4.88%
- viability, T/C [36]: 4.15%
